According to patent US11702404B2, “GLP-1R modulating compounds” (priority 2019, dated 2023):

Tests used:
[1] = Microsomal stability, human liver microsomes (predicted hepatic clearance); conditions: predicted from in vitro microsomal stability data
GLP-1R = GLP-1R (Homo sapiens, UniProt P43220); assay: GLP-1R activation: cAMP increase in CHO cells stably expressing GLP-1R; type: cell-based; conditions: cAMP increase, CHO cells stably expressing GLP-1R, 10 point dose response, 30 minutes incubation; read-out: EC50
Chain of GLP-1R (P43220 24-463): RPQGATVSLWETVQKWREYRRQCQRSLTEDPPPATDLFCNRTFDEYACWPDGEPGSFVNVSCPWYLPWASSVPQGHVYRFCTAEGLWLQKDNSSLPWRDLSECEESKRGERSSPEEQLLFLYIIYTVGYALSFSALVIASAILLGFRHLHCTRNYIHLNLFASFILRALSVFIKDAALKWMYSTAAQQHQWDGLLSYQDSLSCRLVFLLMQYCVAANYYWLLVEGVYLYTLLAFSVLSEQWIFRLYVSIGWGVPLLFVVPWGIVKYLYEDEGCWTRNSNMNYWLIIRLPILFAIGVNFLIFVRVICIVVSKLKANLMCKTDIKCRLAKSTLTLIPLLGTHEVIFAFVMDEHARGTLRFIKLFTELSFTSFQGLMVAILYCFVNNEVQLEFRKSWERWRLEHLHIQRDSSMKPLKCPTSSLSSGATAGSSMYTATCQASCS

Predicted Hepatic Clearance (Pred. Cl.) [1] [mL/min/kg] | EC50 (GLP-1R) [nM] | Structure (SMILES)
8.67 | 927 | COCCn1c(C2OCCc3cc(-c4cccc(OCc5ccc(C#N)cc5F)n4)ccc32)nc2ccc(C(=O)O)cc21 (stereo not shown) [Example 37, 2-(6-(6-((4-cyano-2-fluorobenzyl)oxy)pyridin-2-yl)isochroman-1-yl)-1-(2-methoxyethyl)-1H-benzo[d]imidazole-carboxylic acid]
5.33 | 6.18 | COCCn1c(Cc2ccc(-c3cccc(OCc4ccc(C#N)cc4F)n3)cc2Cl)nc2ccc(C(=O)O)cc21 [Example 38, 2-(2-chloro-4-(6-((4-cyano-2-fluorobenzyl)oxy)pyridin-2-yl)benzyl)-1-(2-methoxyethyl)-1H-benzo[d]imidazole-carboxylic acid]
<1.83 | 8.79 | COCCn1c(Cc2c(F)cc(-c3cccc(OCc4ccc(C#N)cc4F)n3)cc2F)nc2ccc(C(=O)O)cc21 [Example 39, 2-(4-(6-((4-cyano-2-fluorobenzyl)oxy)pyridin-2-yl)-2,6-difluorobenzyl)-1-(2-methoxyethyl)-1H-benzo[d]imidazole-carboxylic acid]
<1.83 | 456 | COCCn1c(Cc2ccc(-c3cccc(OCc4ccc(C#N)cc4F)n3)cc2OC(F)(F)F)nc2ccc(C(=O)O)cc21 [Example 40, 2-(4-(6-((4-cyano-2-fluorobenzyl)oxy)pyridin-2-yl)-2-(trifluoromethoxy)benzyl)-1-(2-methoxyethyl)-1H-benzo[d]imidazole-6-carboxylic acid]
6 | 1460 | COCCn1c(C2CCOc3cc(-c4cccc(OCc5ccc(C#N)cc5F)n4)ccc32)nc2ccc(C(=O)O)cc21 (stereo not shown) [Example 41, 2-(7-(6-((4-cyano-2-fluorobenzyl)oxy)pyridin-2-yl)chroman-4-yl)-1-(2-methoxyethyl)-1H-benzo[d]imidazole-carboxylic acid]
3.83 | 38.2 | COCCn1c(Cc2ccc(-c3cccc(OCc4ccc(C#N)cc4F)n3)cc2OC(F)F)nc2ccc(C(=O)O)cc21 [Example 42, 2-(4-(6-((4-cyano-2-fluorobenzyl)oxy)pyridin-2-yl)-2-(difluoromethoxy)benzyl)-1-(2-methoxyethyl)-1H-benzo[d]imidazole-6-carboxylic acid]
5.83 | 163 | COCCn1c(Cc2ccc(-c3cccc(OCc4ccc(C#N)cc4F)n3)nc2)nc2ccc(C(=O)O)cc21 [Example 43, 2-{[6-[6-[(4-cyano-2-fluoro-phenyl)methoxy]-2-pyridyl]-3-pyridyl]methyl}-3-(2-methoxyethyl)benzimidazole-5-carboxylic acid]
3 | 212 | COCCn1c(Cc2cnc(-c3cccc(OCc4ccc(C#N)cc4F)n3)nc2)nc2ccc(C(=O)O)cc21 [Example 44, 2-((2-(6-((4-cyano-2-fluorobenzyl)oxy)pyridin-2-yl)pyrimidin-5-yl)methyl)-1-(2-methoxyethyl)-1H-benzo[d]imidazole-6-carboxylic acid]
3.83 | 36 | COCCn1c(Cc2ccc(-c3cccc(OCc4ccc(C#N)cc4F)n3)c(F)c2F)nc2ccc(C(=O)O)cc21 [Example 45, 2-(4-(6-((4-cyano-2-fluorobenzyl)oxy)pyridin-2-yl)-2,3-difluorobenzyl)-1-(2-methoxyethyl)-1H-benzo[d]imidazole-6-carboxylic acid]
<1.83 | 19 | CC1(Cn2c(Cc3ccc(-c4cccc(OCc5ccc(C#N)cc5F)n4)cc3F)nc3ccc(C(=O)NS(=O)(=O)C4CC4)cc32)CC1 [Example 50, 2-(4-(6-((4-Cyano-2-fluorobenzyl)oxy)pyridin-2-yl)-2-fluorobenzyl)-N-(cyclopropylsulfonyl)-1-((1-methylcyclopropyl)methyl)-1H-benzo[d]imidazole-6-carboxamide]
<1.83 | 63 | CC(C)(CF)Cn1c(Cc2ccc(-c3cccc(OCc4ccc(C#N)cc4F)n3)cc2F)nc2ccc(C(=O)NS(=O)(=O)C3CC3)cc21 [Example 51, 2-(4-(6-((4-cyano-2-fluorobenzyl)oxy)pyridin-2-yl)-2-fluorobenzyl)-N-(cyclopropylsulfonyl)-1-(3-fluoro-2,2-dimethylpropyl)-1H-benzo[d]imidazole-6-carboxamide]
<1.83 | 56 | CC(C)(Cn1c(Cc2ccc(-c3cccc(OCc4ccc(C#N)cc4F)n3)cc2F)nc2ccc(C(=O)NS(=O)(=O)C3CC3)cc21)C(F)F [Example 52, 2-(4-(6-((4-cyano-2-fluorobenzyl)oxy)pyridin-2-yl)-2-fluorobenzyl)-N-(cyclopropylsulfonyl)-1-(3,3-difluoro-2,2-dimethylpropyl)-1H-benzo[d]imidazole-6-carboxamide]
9 | 1010 | COCCn1c(Cc2ccc(-c3cccc(OCc4ccc(C#N)cc4F)n3)c(C)c2)nc2ccc(C(=O)NS(=O)(=O)C3CC3)cc21 [Example 53, 2-(4-(6-((4-cyano-2-fluorobenzyl)oxy)pyridin-2-yl)-3-methylbenzyl)-N-(cyclopropylsulfonyl)-1-(2-methoxyethyl)-1H-benzo[d]imidazole-6-carboxamide]
3.83 | 806 | COCCn1c(Cc2ccc(-c3cccc(OCc4ccc(C#N)cc4F)n3)cn2)nc2ccc(C(=O)NS(=O)(=O)C3CC3)cc21 [Example 54, 2-((6-((4-cyano-2-fluorobenzyl)oxy)-[2,3′-bipyridin]-6′-yl)methyl)-N-(cyclopropylsulfonyl)-1-(2-methoxyethyl)-1H-benzo[d]imidazole-6-carboxamide]
4.33 | 3.4 | N#CCC1(Cn2c(Cc3ccc(-c4cccc(OCc5ccc(C#N)cc5F)n4)cc3F)nc3ccc(C(=O)NS(=O)(=O)C4CC4)cc32)CC1 [Example 55, 2-(4-(6-((4-cyano-2-fluorobenzyl)oxy)pyridin-2-yl)-2-fluorobenzyl)-1-((1-(cyanomethyl)cyclopropyl)methyl)-N-(cyclopropylsulfonyl)-1H-benzo[d]imidazole-6-carboxamide]
<1.83 | 6.7 | N#Cc1ccc(COc2cccc(-c3ccc(Cc4nc5ccc(C(=O)NS(=O)(=O)C6CC6)cc5n4CC4(CF)CC4)c(F)c3)n2)c(F)c1 [Example 57, 2-(4-(6-((4-cyano-2-fluorobenzyl)oxy)pyridin-2-yl)-2-fluorobenzyl)-N-(cyclopropylsulfonyl)-1-((1-(fluoromethyl)cyclopropyl)methyl)-1H-benzo[d]imidazole-6-carboxamide]
<1.83 | 5.6 | COCCn1c(Cc2ccc(-c3cccc(OCc4ccc(C#N)cc4F)n3)cc2C)nc2ccc(C(=O)O)cc21 [Example 59, 2-(4-(6-((4-cyano-2-fluorobenzyl)oxy)pyridin-2-yl)-2-methylbenzyl)-1-(2-methoxyethyl)-1H-benzo[d]imidazole-6-carboxylic acid]
